Where a chain is given by its changes, count along the chain named. *1 amine or outer side, *2 acyl side, *3 side chain or, on linkers, in order; H or OH if unused. Where a SMILES comes first, the peptide text is derived from it. Side-chain parts run from the residue outwards. [ ]: non-standard residue; d: D form. The star is where a group is joined. γGlu = O=C(O)[C@H](CCC(=O)[*:2])N[*:1]; Stearoyl = CCCCCCCCCCCCCCCCCC(=O)*; Nle = CCCC[C@H](N)C(=O)O; AEEA = NCCOCCOCC(=O)O; Aib = CC(C)(N)C(=O)O
Key:
RXFP1 = target: T1, RXFP1 (Homo sapiens, UniProt Q9HBX9); assay: Phospho-VASP (Ser157) MSD assay in EA.hy926_RXFP1 cells; assay type: cell-based; set-up: expressed in transfected cells; host or cells: EA.hy926 (ATCC CRL-2922), lentiviral transduction, puromycin selection; details: serum-free DMEM, 20 min 37 °C, n = 3, read-out: EC50 [CI95%] VASP phosphorylation on S157
T1 sequence (Q9HBX9 1-757): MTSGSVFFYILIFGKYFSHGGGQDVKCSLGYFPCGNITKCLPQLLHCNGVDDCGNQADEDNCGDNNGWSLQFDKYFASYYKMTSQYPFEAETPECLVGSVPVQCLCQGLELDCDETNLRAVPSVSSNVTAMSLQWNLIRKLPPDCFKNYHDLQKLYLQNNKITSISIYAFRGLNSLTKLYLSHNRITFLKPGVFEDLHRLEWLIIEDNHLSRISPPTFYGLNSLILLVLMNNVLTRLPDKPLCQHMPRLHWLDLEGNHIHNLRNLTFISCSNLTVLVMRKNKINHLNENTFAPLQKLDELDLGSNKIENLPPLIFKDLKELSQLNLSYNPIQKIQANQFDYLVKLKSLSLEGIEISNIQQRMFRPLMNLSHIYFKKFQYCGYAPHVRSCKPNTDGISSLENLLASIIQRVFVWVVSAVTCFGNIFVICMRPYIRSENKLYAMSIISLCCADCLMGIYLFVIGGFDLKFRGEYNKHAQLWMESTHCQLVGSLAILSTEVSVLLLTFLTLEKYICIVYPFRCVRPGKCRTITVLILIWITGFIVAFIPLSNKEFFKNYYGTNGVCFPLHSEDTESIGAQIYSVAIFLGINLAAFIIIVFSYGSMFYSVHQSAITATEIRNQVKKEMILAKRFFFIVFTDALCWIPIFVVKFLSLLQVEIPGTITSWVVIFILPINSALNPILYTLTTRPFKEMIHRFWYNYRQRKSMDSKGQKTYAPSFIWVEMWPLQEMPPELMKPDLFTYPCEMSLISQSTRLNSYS
Protocol: These experiments were conducted according to the MSD protocol (K151FFD-2) and using a Sector 2400 from Mesoscale Discovery. In order to reduce the basal phosphorylation activity of VASP protein, EA.hy926_RXFP1 cells were stimulated with effector solutions in basal DMEM (i.e., without serum). Cells were plated in 96-well plate at a density of 35.000 cells/well overnight in a volume of 200µL of cell culture media. Prior to stimulation, growth medium was discarded, and the cells were washed one time with basal DMEM medium, before being incubated for 4 h with basal DMEM medium at 37 °C in 5% CO2. […] For control cells, 50µL of basal DMEM medium without effector standard solution were added onto the cells. The microplates were incubated for 20 min at 37 °C in 5% CO2. All the following steps were carried-out on ice. Medium was aspirated and the cells were directly lysed by addition of 50μL of complete lysis buffer/well (lysis buffer is provided in the pVASP assay kit and prepared according to MSD instructions). The microplates were placed for 60 min under orbital agitation. The cell lysates were collected in round bottom microplate then stored at − 80 °C until pVASP content determination according to MSD protocol.

hRXFP1 (F76V) = target: T2, hRXFP1 (F76V) (Homo sapiens, UniProt Q9HBX9, F76V); assay: cAMP production in HEK cells expressing hRXFP1 (F76V); assay type: cell-based; details: hRXFP1 F76V mutant, n = 4 experiments in duplicate
T2 sequence (Q9HBX9 1-757 F76V): T1 sequence (Q9HBX9 1-757) with F76V
Protocol: HEK cells were stably transduced with lentiviral constructs (Vectalys, MOI 20, batches rV2.1A1.5057 B, rV2.1A1.5056 B and rV2.1A1.5059 B) containing a bicistronic vectors encoding hRXFP1 (S69P) or hRXFP1 (F76V) or hRXFP1 (S69P/F76V) under the EF1 promoter followed by an internal ribosome entry site (IRES) elements to express the neomycin antibiotic resistance gene for selection with 500 μg/mL Geneticin (Invitrogen, #10131-019). Three days post transduction, HEK cells were grown in the presence of Genetecin. Positive individual clones were selected and amplified, and cAMP readout (nM) was used as described for other cell types at a cell density of 8000 cells/well.

| Compound | EC50 (RXFP1) | cAMP response (efficacy) (hRXFP1 (F76V)) |
| --- | --- | --- |
| CCCCCCCCCCCCCCCCCC(=O)N[C@@H](CCC(=O)N[C@@H](CCC(=O)N[C@@H](CCC(=O)NCCOCCOCC(=O)NCCOCCOCC(=O)NCCOCCOCC(=O)NCCCC[C@H](NC(=O)[C@H](CCCCNC(C)=O)NC(=O)[C@H](CCCCN)NC(=O)[C@H](CCCNC(=N)N)NC(=O)C(C)(C)NC(=O)[C@H](CO)NC(=O)[C@H](Cc1c[nH]c2ccccc12)NC(=O)[C@@H](NC(=O)[C@H](CO)NC(=O)[C@H](CCCC)NC(=O)CNC(=O)[C@H](CCC(=O)O)NC(=O)C(C)(C)NC(=O)C(C)(C)NC(=O)[C@@H](NC(=O)[C@H](CCCCNC(C)=O)NC(=O)[C@H](C)NC(=O)[C@H](CCCNC(=N)N)NC(=O)[C@@H](NC(=O)[C@H](CCCCN)NC(=O)[C@H](CCC(=O)O)NC(=O)[C@H](CCCNC(=N)N)NC(=O)CNC(=O)[C@H](CCC(=O)O)NC(=O)[C@H](CC(C)C)NC(C)=O)C(C)C)[C@@H](C)CC)[C@@H](C)O)C(N)=O)C(=O)O)C(=O)O)C(=O)O [SA10SC-RLX] (Ac-LEGREKVRAK(Ac)I[Aib][Aib]EG[Nle]STWS[Aib]RKK(Ac)K([AEEA-AEEA-AEEA-γGlu-γGlu-γGlu-Stearoyl])-NH2) | 190 pM |  |
| relaxin |  | reduced in all RXFP1 mutants compared to the wild type construct |

Reference: PMC9705314, “Characterization of a new potent and long-lasting single chain peptide agonist of RXFP1 in cells and in vivo translational models” (Scientific Reports, 2022)
